Reference: US5583127A, “17-iminomethylalkenyl-5 β, 14 β-androstane and 17-iminoalkyl-5 β, 14 β-androstane derivatives active on the cardiovascular system, and pharmaceutical compositions containing same” (Sigma-Tau Industrie Farmaceutiche Riunite S.p.A., priority 1993, dated 1996)
Read-outs that look alike come from different tables or passages of the source.

Tests used:
[1] = molecular target: purified Na^+,K^+ -ATPase (Homo sapiens, UniProt P05023); assay: inhibition of the activity of the purified Na+,K+-ATPase (% hydrolysis of 32P-ATP); assay type: biochemical
[2] = molecular target: Na^+, K^+ -ATPase receptor (Homo sapiens, UniProt P05023); assay: displacement of the specific 3H-ouabain binding from the Na+,K+-ATPase receptor
[3] = purified Na+,K+-ATPase, read-out: Inhibitory Activity log IC50 (converted)
[4] = displacement of specific 3H-ouabain binding, read-out: Binding ^3 H-Ouab. Displacement log IC50 (converted)
[5] = read-out: Inhibitory Activity log IC50 (converted)

Compound	IC50 [1, 3] [nM]	IC50 [2, 4] [nM]	IC50 [1, 5] [nM]	IC50 [1] [nM]	IC50 [2] [nM]
CN(C)CCON=CC[C@H]1CC[C@]2(O)[C@@H]3CC[C@@H]4C[C@@H](OCCN5CCCC5)CC[C@]4(C)[C@H]3CC[C@]12C (mixture of isomers) [Comp. I-cg, 3β-[2-(1-Pyrrolidinyl)ethoxy]-17β-[3-(EZ)-(2-dimethylamino-ethoxyimino)ethyl]-5β-androstane-14β-ol]	100	31.6			
C[C@]12CC[C@H](O)C[C@H]1CC[C@@H]1[C@@H]2CC[C@]2(C)[C@@](O)(/C=C/C=N/NC3=NCCN3)CC[C@]12O [Comp. I-bp, (E,E)-17β-[3-(2-Imidazolin-2-yl)hydrazono-1-propenyl]-5β-androstane-3β,14β,17α-triol]		631	7940		
CN(C)CCON=C/C=C/[C@H]1CC[C@]2(O)[C@@H]3CC[C@@H]4C[C@@H](OCCCN)CC[C@]4(C)[C@H]3CC[C@]12C (mixture of isomers) [Comp. 1-ce, 3β-(3-Aminopropoxy)-17β-[3-(EZ)-(2-dimethylaminoethoxy-imino)-1-(E)-propenyl]-5β-androstane-14β-ol]	20	15.8			
C[C@]12CC[C@H](O)C[C@H]1CC[C@@H]1[C@@H]2CC[C@]2(C)[C@@H](/C=C/C=N/NC(N)=S)CC[C@]12O [Comp. I-al, (E,E)-17β-(3-Thiosemicarbazono-1-propenyl)-5β-androstane-3β,14β-diol]	39800	3980			
CN1CCN=C1N/N=C/C=C/[C@H]1CC[C@]2(O)[C@@H]3CC[C@@H]4C[C@@H](O)CC[C@]4(C)[C@H]3CC[C@]12C [Comp. I-ae, (E,E)-17β-[3-(1-Methyl-2-imidazolin-2-yl)hydrazono-1-propenyl]-5β-androstane-3β,14β-diol]				2510	158
C[C@]12CC[C@H](O)C[C@H]1CC[C@@H]1[C@@H]2CC[C@]2(C)[C@@H](CC=NNC(=N)N)CC[C@]12O (mixture of isomers) [Comp. I-bc, (EZ)-17β-(2-Guaidinoimino)ethyl-5β-androstane-3β,14β-diol]	398	79.4			
C[C@]12CC[C@H](OCCN)C[C@H]1CC[C@@H]1[C@@H]2CC[C@]2(C)[C@@H](/C=C/C=NNC(=N)N)CC[C@]12O (mixture of isomers) [Comp. I-cb]	100	20			
CN(C)CCNC(=N)N/N=C/C=C/[C@H]1CC[C@]2(O)[C@@H]3CC[C@@H]4C[C@@H](O)CC[C@]4(C)[C@H]3CC[C@]12C [Comp. I-ai, (E,E)-17β-{3-[3-(2-Dimethylaminoethyl)guanidinoimino]-1-propenyl}-5β-androstane-3β,14β-diol]		251	3160		
C[C@]12CC[C@H](O)C[C@H]1CC[C@@H]1[C@@H]2CC[C@]2(C)[C@@H](CC=NNC3=NCCN3)CC[C@]12O (mixture of isomers) [Comp. I-bd, (EZ)-17β-[2-(2-Imidazolin-2-yl)hydrazonoethyl]-5β-androstane-3β,14β-diol]	631	126			
C[C@]12CC[C@H](O)C[C@H]1CC[C@@H]1[C@@H]2CC[C@]2(C)[C@@H](/C=C/C=NOCCCNC(=N)N)CC[C@]12O (mixture of isomers) [Comp. I-at, 17β-[3-(EZ)-(3-Guanidinopropoxyimino)-1-(E)-propenyl]-5β-androstane-3β,14β-diol]	316	158			
C[C@]12CC[C@H](O)C[C@H]1CC[C@@H]1[C@@H]2CC[C@]2(C)[C@@H](/C=C/C=N/NC(N)=O)CC[C@]12O [Comp. I-ak, (E,E)-17β-(3-Semicarbazono)-1-propenyl-5β-androstane-3β,14β-diol]		2000	25100		
C[C@]12CC[C@H](O)C[C@H]1CC[C@@H]1[C@@H]2CC[C@]2(C)[C@@H](/C=C/C=N/OCCCN)CC[C@]12O [Comp. I-ap, (E,E)-17β-[3-(3-Aminopropoxyimino)-1-propenyl]-5β-androstane-3β,14β-diol]	100				50.1
C[C@]12CC[C@H](O)C[C@H]1CC[C@@H]1[C@@H]2CC[C@]2(C)[C@@H](/C=C/C=N/NC3=NCCCN3)CC[C@]12O [Comp. I-ag, (E,E)-17β-[3-(1,4,5,6-Tetrahydro-2-pyrimidinyl)hydrazono-1-propenyl]-5β-androstane-3β,14β-diol]	1580	39.8			
C[C@]12CC[C@H](O)C[C@H]1CC[C@@H]1[C@@H]2CC[C@]2(C)[C@@H](CC=NOCCCN)CC[C@]12O (mixture of isomers) [Comp. I-bg, (EZ)-17β-[2-(3-Aminopropoxyimino)ethyl]-5β-androstane-3β,14β-diol]	398				50.1
CO/N=C/C=C/[C@H]1CC[C@]2(O)[C@@H]3CC[C@@H]4C[C@@H](O)CC[C@]4(C)[C@H]3CC[C@]12C [Comp. I-an, (E,E)-17β-(3-Methoxyimino-1-propenyl)-5β-androstane-3β,14β-diol]	20000	2000			
C[C@]12CC[C@H](O)C[C@H]1CC[C@@H]1[C@@H]2CC[C@]2(C)[C@@H](/C=C/C=N/NC(=N)Nc3ccccc3)CC[C@]12O [Comp. I-aj, (E,E)-17β-[3-(3-Phenyl)guanidinoimino-1-propenyl]-5β-androstane-3β,14β-diol]		1000	10000		
C[C@]12CC[C@@H](O)C[C@H]1CC[C@@H]1[C@@H]2CC[C@]2(C)[C@@H](/C=C/C=N/NC(=N)N)CC[C@]12O [Comp. I-ej, (E,E)-17β-(3-Guanidinoimino-1-propenyl)-5β-androstane-3α,14β-diol]	316				50.1
CN(C)CCO/N=C/C=C/[C@H]1CC[C@]2(O)[C@@H]3CC[C@@H]4C[C@H](O)CC[C@]4(C)[C@H]3CC[C@]12C [Comp. I-ck, (E,E)-17β-[3-(2-Dimethylaminoethoxyimino)-1-propenyl]-5β-androstane-3α,14β-diol]	63.1				50.1
C[C@]12CC[C@H](O)C[C@H]1CC[C@@H]1[C@@H]2CC[C@]2(C)[C@@H](/C=C/C=C/C=N/NC3=NCCN3)CC[C@]12O [Comp. I-av, (E,E,E)-17β-[5-(2-Imidazolin-2-yl)hydrazono-1,3-pentadienyl]-5β-androstane-3β,14β-diol]	10000	1000			
C[C@]12CC[C@H](O)C[C@H]1CC[C@@H]1[C@@H]2CC[C@]2(C)[C@@H](/C=C/C=N\NC3=NCCN3)CC[C@]12O [Comp. I-ad, 17β-[3-(Z)-(2-Imidazolin-2-yl)hydrazono-1-(E)-propenyl]-5β-androstane-3β,14β-diol]					631
C[C@]12CC[C@H](O)C[C@H]1CC[C@@H]1[C@@H]2CC[C@]2(C)[C@@H](/C=C/C=C/C=N/NC3=NCCCN3)CC[C@]12O [Comp. I-aw, (E,E,E)-17β-[5-(1,4,5,6-Tetrahydro-2-pyrimidinyl)hydrazono-1,3-pentadienyl]-5β-androstane-3β,14β-diol]			15800		
C[C@]12CC[C@H](O)C[C@H]1CC[C@@H]1[C@@H]2CC[C@]2(C)[C@@H](/C=C/C=N/NC3=NCCN3)CC[C@]12O [Comp. I-ac, (E,E)-17β-[3-(2-Imidazolin-2-yl)hydrazono-1-propenyl]-5β-androstane-3β,14β-diol]					50.1
C[C@]12CC[C@H](O)C[C@H]1CC[C@@H]1[C@@H]2CC[C@]2(C)[C@@H](/C=C/C=C/C=N/N=C(N)N)CC[C@]12O [Comp. I-au]		501			
